Test results taken from the NIST ThermoML archive (doi:10.1021/je060271a).
± gives the expanded uncertainty stated by the source.

Conditions: 343.14 K, Liquid, Vibrating tube method

CCCC(=O)OCC(COC(=O)CCC)(COC(=O)CCC)COC(=O)CCC [pentaerythritol tetrabutyrate]
Conditions	mass density [kg/m3]
5789.8 kPa	1012.7 ± 1.2
5820.2 kPa	1012.7 ± 1.2
5848.2 kPa	1012.7 ± 1.2
5882.8 kPa	1012.5 ± 1.2
5917.3 kPa	1012.8 ± 1.2
5983 kPa	1012.8 ± 1.2
6117.5 kPa	1013 ± 1.2
6146.4 kPa	1012.8 ± 1.2
6179.9 kPa	1012.9 ± 1.2
6208.2 kPa	1012.9 ± 1.2
6243.3 kPa	1013 ± 1.2
6271.8 kPa	1012.9 ± 1.2
6306.4 kPa	1012.9 ± 1.2
6341.3 kPa	1013 ± 1.2
6370.3 kPa	1013.1 ± 1.2
6406.6 kPa	1013 ± 1.2
6437.2 kPa	1013.1 ± 1.2
6473.6 kPa	1013.1 ± 1.2
6511 kPa	1013.2 ± 1.2
6542.8 kPa	1013.3 ± 1.2
6581.3 kPa	1013.2 ± 1.2
6611.2 kPa	1013.2 ± 1.2
6645.7 kPa	1013.4 ± 1.2
6673.9 kPa	1013.3 ± 1.2
6707.9 kPa	1013.3 ± 1.2
6736.2 kPa	1013.4 ± 1.2
6771.5 kPa	1013.3 ± 1.2
6800.7 kPa	1013.3 ± 1.2
6836.3 kPa	1013.4 ± 1.2
6866 kPa	1013.4 ± 1.2
6902.9 kPa	1013.4 ± 1.2
6934 kPa	1013.6 ± 1.2
6971 kPa	1013.5 ± 1.2
7008.4 kPa	1013.5 ± 1.2
7168 kPa	1013.6 ± 1.2
7200.4 kPa	1013.7 ± 1.2
7227.9 kPa	1013.7 ± 1.2
7261.2 kPa	1013.7 ± 1.2
7289.3 kPa	1013.8 ± 1.2
7323.9 kPa	1013.9 ± 1.2
7352.7 kPa	1013.8 ± 1.2
7387.4 kPa	1014 ± 1.2
7416.1 kPa	1013.9 ± 1.2
7450.6 kPa	1013.8 ± 1.2
7480.1 kPa	1014 ± 1.2
7515.7 kPa	1014 ± 1.2
7551.4 kPa	1013.9 ± 1.2
7581.6 kPa	1013.9 ± 1.2
7618.5 kPa	1014 ± 1.2
7649.6 kPa	1014 ± 1.2
7686.9 kPa	1014 ± 1.2
7718.3 kPa	1014.2 ± 1.2
7756.1 kPa	1014.1 ± 1.2
7788.3 kPa	1014.2 ± 1.2
7827 kPa	1014.2 ± 1.2
7866.3 kPa	1014.2 ± 1.2
7899.3 kPa	1014.2 ± 1.2
7932.8 kPa	1014.4 ± 1.2
7972.8 kPa	1014.4 ± 1.2
8013.9 kPa	1014.3 ± 1.2
8090.3 kPa	1014.4 ± 1.2
8125.6 kPa	1014.5 ± 1.2
8169.1 kPa	1014.4 ± 1.2
8205.4 kPa	1014.5 ± 1.2
8246 kPa	1014.4 ± 1.2
8283.5 kPa	1014.5 ± 1.2
8312 kPa	1014.5 ± 1.2
8346.8 kPa	1014.6 ± 1.2
8382.7 kPa	1014.7 ± 1.2
8723.4 kPa	1014.9 ± 1.2
8760.5 kPa	1014.7 ± 1.2
8798.7 kPa	1014.8 ± 1.2
8838.7 kPa	1014.9 ± 1.2
8871 kPa	1015 ± 1.2
8910.3 kPa	1015.2 ± 1.2
8943.4 kPa	1015 ± 1.2
9220.4 kPa	1015.3 ± 1.2
9262.8 kPa	1015.3 ± 1.2
9305.7 kPa	1015.3 ± 1.2
9342.7 kPa	1015.3 ± 1.2
9387.2 kPa	1015.4 ± 1.2
9430.1 kPa	1015.4 ± 1.2
9462.8 kPa	1015.5 ± 1.2
9499 kPa	1015.3 ± 1.2
9535.2 kPa	1015.5 ± 1.2
9572.1 kPa	1015.6 ± 1.2
9751.4 kPa	1015.7 ± 1.2
9783.6 kPa	1015.7 ± 1.2
10212 kPa	1016 ± 1.2
10254 kPa	1016.1 ± 1.2
10297 kPa	1016.1 ± 1.2
10334 kPa	1015.9 ± 1.2
10376 kPa	1016 ± 1.2
10420 kPa	1016.1 ± 1.2
10456 kPa	1016.3 ± 1.2
10500 kPa	1016.3 ± 1.2
10816 kPa	1016.5 ± 1.2
10866 kPa	1016.5 ± 1.2
10904 kPa	1016.5 ± 1.2
11274 kPa	1016.8 ± 1.2
11884 kPa	1017.2 ± 1.2
11921 kPa	1017.2 ± 1.2
11965 kPa	1017.2 ± 1.2
12003 kPa	1017.3 ± 1.2
12047 kPa	1017.3 ± 1.2
12093 kPa	1017.5 ± 1.2
12139 kPa	1017.3 ± 1.2
12178 kPa	1017.4 ± 1.2
12224 kPa	1017.5 ± 1.2
12271 kPa	1017.5 ± 1.2
12318 kPa	1017.5 ± 1.2
14882 kPa	1019.5 ± 1.2
14925 kPa	1019.6 ± 1.2
14968 kPa	1019.5 ± 1.2
15004 kPa	1019.4 ± 1.2
15048 kPa	1019.5 ± 1.2
15500 kPa	1019.8 ± 1.2
15576 kPa	1019.8 ± 1.2
17833 kPa	1021.6 ± 1.2
19181 kPa	1022.6 ± 1.2
19261 kPa	1022.5 ± 1.2
22923 kPa	1025 ± 1.2
23811 kPa	1025.7 ± 1.2
23859 kPa	1025.7 ± 1.2
23900 kPa	1025.7 ± 1.2
23948 kPa	1025.8 ± 1.2
23996 kPa	1025.8 ± 1.2
24046 kPa	1025.8 ± 1.2
25712 kPa	1027 ± 1.2
25761 kPa	1026.9 ± 1.2
25802 kPa	1027 ± 1.2
25851 kPa	1027.1 ± 1.2
25900 kPa	1027.1 ± 1.2
25940 kPa	1027.1 ± 1.2
25989 kPa	1027.1 ± 1.2
26037 kPa	1027.1 ± 1.2
26087 kPa	1027.3 ± 1.2
26128 kPa	1027.2 ± 1.2
26178 kPa	1027.4 ± 1.2
26627 kPa	1027.5 ± 1.2
26673 kPa	1027.6 ± 1.2
26708 kPa	1027.6 ± 1.2
26751 kPa	1027.6 ± 1.2
26793 kPa	1027.7 ± 1.2
26835 kPa	1027.8 ± 1.2
26872 kPa	1027.7 ± 1.2
26914 kPa	1027.8 ± 1.2
